Assay results as given in patent US8022051B2, “Composition for protection and improvement of skin, or reinforcing skin barrier function comprising phosphatidylserine” (Doosan Corporation, priority 2004, dated 2011).

What was measured:
[1] = system: normal human keratinocytes; assay: Differentiation promoting effect in skin keratinocytes (western blot of involucrin and transglutaminase); assay type: cell-based; settings: phosphatidylserine 20 and 40 μM, calcium 1.2 mM, clofibrate 200 and 400 μM; 24 hours; FIG. 5
Description: In order to examine a differentiation promoting effect in the skin keratinocytes by the phosphatidylserine of the invention, a following experiment was performed. First, the normal human keratinocytes (a gift from Dong-guk University) cultured in the KSFM (Keratinocyte-SFM; Gibco BRL/Life Technologies, USA) were seeded to the 35 mm^2 cell culture dish in an amount of 1.5×10^5 cells/dish and then cultured for a day. Next day, the culture medium was removed and a new culture medium containing 20 and 40 μM of phosphatidylserine aqueous solution, 1.2 mM calcium aqueous solution and 200 and 400 μM of clofibrate (Sigma, USA) added thereto was added and cultured for 24 hours. Next day, in order to make sure of a differentiation of the keratinocyte, a morphology change of the cell was checked with a phase contrast microscope (Nikon, Japan) and a photograph was taken with a digital camera attached to the microscope. In addition, a western blot was performed to check the protein expression amount of involucrin and transglutaminase, which have been known as a differentiation-marker proteins of the keratinocyte peculiar to the keratin. 500 μl of a lysis buffer having 2% sodium dodecyl sulfate (SDS) added thereto wad added and the cells were collected with a cell scrapper, so that cell lysate only was obtained. […]

[2] = system: skin keratinocytes (HaCaT); assay: Protection from ROS (hydrogen peroxide) in skin keratinocytes (MTT assay); assay type: cell-based; settings: phosphatidylserine 25 μM, vitamin C 100 μM, vitamin E 100 μM, 24 hours; then 1 mM H2O2 about 1-1.5 hours; FIG. 8
Description: In order to measure an effect of protecting the skin from the ROS in the keratinocyte by the phosphatidylserine of the invention, a following experiment was performed.
First, the skin keratinocytes (HaCaT) were seeded to the 24-well plate in an amount of 5×10^4 cells/well. Next day, it was treated with 25 μM phosphatidylserine aqueous solution (Doosan Biotech, Korea) (phosphatidylserine-treated group), 100 μM vitamin C (ascorbic acid-treated group) and 100 μM vitamin E (a-tocopherol-treated group) as the positive control group and then cultured for 24 hours. Next day, it was treated with 1 mM hydrogen peroxide (H2O2) and then cultured for about 1˜1.5 hours. Then, a cell viability was examined with the MTT assay.

skin = settings: applied to the skin; Sheu et al., J Invest Dermatol 118, 94-101, 2002; cited from earlier work
[3] = system: skin keratinocyte cell line (HaCaT) and normal human keratinocytes; assay: Reduction of inflammatory response induced by ultraviolet irradiation in skin keratinocytes (ELISA of TNF-a, IL-6, IL-1alpha); assay type: cell-based; settings: 25 mJ/cm^2 UVB; phosphatidylserine 20 and 40 μM, WY-14643 200 μM; 24 hours; FIG. 3
Description: In order to examine an inflammatory response-reducing effect of the phosphatidylserine of the invention in the skin keratinocyte, which response results from the ultraviolet irradiation, a following experiment was performed in accordance with a method disclosed in the literature (Stefan et. al., The Journal of Investigate Dermatology, 117, pp 1430-1436, 2001).
First, the skin keratinocyte cell line (HaCaT, a gift from Yonsei univeritym, Korea) was seeded to a 35 mm^2 of cell culture dish in an amount of 3×10^5 cells/dish and then cultured for a day. Next day, the culture medium was removed and the cell was washed with 1× phosphate-buffered saline (PBS), 700 μl of 1×PBS was added to each of the dishes, it was irradiated 25 mJ/cm^2 UVB and then PBS was removed. […] Next day, the culture medium was collected and then amounts of TNF-a and IL-6 which have been known as inflammatory cytokines were measured with an enzyme-linked immunosorbent assay (ELISA) method. In addition, in order to check that there occurred a similar inflammatory response reducing effect also in the normal human skin keratinocyte, an experiment was performed in the above-mentioned manner using normal human keratinocytes (a gift from Dong-guk University) instead of the HaCaT cell line and then an amount of IL-1alpha secreted to the culture medium was measured with the ELISA.

[4] = system: skin keratinocyte cell line (HaCaT); assay: Protection of skin keratinocytes from ultraviolet injury (MTT assay); assay type: cell-based, human; settings: 25 mJ/cm^2 UVB; phosphatidylserine 20 and 40 μM, WY-14643 200 μM; 24 hours; FIG. 4
[5] = system: TPA-induced ear inflammation in CD-1 mouse; assay: Alleviation of skin damage (inflammatory response) due to TPA in mouse ear; assay type: in vivo; settings: TPA 0.03%; applied 30 μl per cm^2 at 45 minutes and 4 hours after induction; phosphatidylserine 0.5%, clofibrate 1 mM, Wy14643 1 mM; FIG. 2
Description: In order to examine a skin damage (inflammatory response)-alleviating effect of the phosphatidylserine of the invention, which damage results from skin inflammation-inducing material, a following experiment was performed in accordance with a method used by Sheu et. al. (The Journal of Investigate Dermatology, 118, pp 94-101, 2002).
First, CD-1 mouse (male & female, 6-8 weeks, Charles River, US) was used as an experimental object. TPA (12-0-tetradecanoylphorbol-13-acetate) 0.03% (wt./vol.; in acetone) solution 10 μl, which was skin inflammation-inducing material, was treated to inner and outer parts of both ears of the experimental animal. The ear was thickened due to TPA and there occurred an inflammatory response. Then, clofibrate (1 mM) and Wy14643 (1 mM) as already-known positive control group, which are agonists of PPAR-a, and the 0.5% phosphatidylserine containing aqueous solution used as the Example 1 as an experimental material were applied to both ears in an amount of 30 μl per cm^2 at times of 45 minutes and 4 hours after the inflammation was induced. After that, the treated parts of the ears were subject to a biopsy, and the biopsy parts were fixed to 4% formaldehyde and then subject to Hematoxylene & Eosin (E&H) staining. The tissue slide stained with H&E was magnified to 100 folds to check the inflammation alleviation.

For [Ca+2] [calcium, reference compound], the “protein expression of involucrin and transglutaminase” value [1] was “caused the expressions of the two proteins to be increased”.
For Cc1c(C)c2c(c(C)c1O)CC[C@@](C)(CCC[C@H](C)CCC[C@H](C)CCCC(C)C)O2 [a-tocopherol, reference compound], the “protection effect from reactive oxygen species (cell viability, MTT)” value [2] was “exhibited the protection effect”.
With O=C1O[C@H]([C@@H](O)CO)C(O)=C1O [ascorbic acid, reference compound] the “protection effect from reactive oxygen species (cell viability, MTT)” value [2] was “exhibited the protection effect”.
In the case of Cc1cccc(Nc2cc(Cl)nc(SCC(=O)O)n2)c1C [WY14643, reference compound], the “inflammation due to the skin stimulating material” value (skin) is given as “decreased”, the “inflammatory response increased due to the ultraviolet irradiation (TNF-a, IL-6, IL-1alpha amounts)” value [3] is given as “considerably alleviated” and the “protection of skin keratinocytes from ultraviolet injury (cell survival, MTT)” value [4] is given as “protected the skin keratinocytes from the ultraviolet injury”. For the same compound, the “inflammation alleviation (H&E stained ear tissue)” value [5] was “inflammation was alleviated”.
